From paper PMC11870037 (Molecules, 2024)

Legend:
[1] = molecular target: T1, SERT (Rattus norvegicus, UniProt P31652); test: biochemical; format: binding
T1 construct: [3H]-paroxetine, rat cerebral cortex; from tissue; host or cells: rat cerebral cortex (membranes / crude synaptosomes)

[2] = molecular target: T1, SERT; test: Monoamine uptake transporter assay, [3H]5-HT uptake by SERT; format: biochemical
[3] = molecular target: T2, NET (Rattus norvegicus, UniProt Q63380); test: Monoamine uptake transporter assay, [3H]NE uptake by NET; format: biochemical
[4] = molecular target: recombinant hH3R (Homo sapiens, UniProt Q9Y5N1); test: H3 receptor intrinsic activity assay ([35S]GTPγS binding); format: biochemical
[5] = test system: mice; test: Locomotor activity test; format: in vivo, mouse; conditions: oral 5, 10, 20, 40, and 80 mg/kg, 15 min period
[6] = Pharmacokinetic study in rats; format: in vivo; conditions: rat, plasma
Procedure: 7. Pharmacokinetics Study
The HPLC conditions were as follows: Shimadzu LC30AD spectrometer ; column, SHIMADZU C18 (2.1 mm×50 mm, 2 μm); mobile phase A: 0.1% FA-Acetonitrile; mobile phase B: 0.1% FA-Deionized water; ﬂow rate, 0.4 mL/min; column temperature: 25 °C; UV detection was performed at 210 nm. The Mass conditions were as follows: ESI (positive), Ion spray voltage: 5500V, Curtain gass: 30, Temperature: 550°C, Ion Source Gas1: 55, Collision Gas: 7. For routine compound 11b screening, rats (n = 6/group) were dosed via the lateral tail vein at the indicated dose for iv administration (2 mg/kg, NS) or via oral gavage (20 mg/kg, Deionized water). At 0, 0.08, 0.25, 0.5,1、2、4、7、10 and 24h after administration, serial blood samples were collected from the lateral tail vein into heparinized collection tubes (approximately 0.25 mL). The plasma was separated by centrifugation, and the sample was prepared for LC/MS analysis by protein precipitation with acetonitrile. The plasma samples were analyzed for drug and internal standard via the LCMS/MS protocol.

[7] = molecular target: Dopamine transporter (Rattus norvegicus, UniProt P23977); test: Dopamine transporter binding ([3H]-WIN35,428); conditions: rat striatum; read-out: Ki DAT
[8] = molecular target: T3, Dopamine D3 receptor (Rattus norvegicus, UniProt P19020); test: Dopamine D3 receptor binding ([3H]7-OH-DPAT); conditions: rat olfactory tubercle
T3 construct: A rat olfactory tubercle was homogenized in 20 volumes of ice; from tissue; host or cells: rat olfactory tubercle membranes

[9] = molecular target: T4, Serotonin 5-HT2A receptor (Rattus norvegicus, UniProt P14842); test: Serotonin 5-HT2A receptor binding ([3H]ketanserin); conditions: rat brain cortex
T4 construct: The cerebral cortex of a rat was finely homogenized using an ULTRA TURAX; from tissue; host or cells: rat cerebral cortex membranes

[10] = molecular target: T5, Serotonin 5-HT2C receptor (Rattus norvegicus, UniProt P08909); test: Serotonin 5-HT2C receptor binding ([3H]mesulergine); conditions: rat brain cortex
T5 construct: The cerebral cortex of a rat was processed by homogenization; from tissue; host or cells: rat cerebral cortex membranes

[11] = molecular target: Adrenergic α2 receptor; test: Adrenergic α2 receptor binding ([3H]-rauwolscine); conditions: rat cerebral cortex
[12] = molecular target: T6, Histamine H4 receptor (Homo sapiens, UniProt Q9H3N8); test: Histamine H4 receptor binding ([3H]Na-Methylhistamine, Sf9 membranes); conditions: Sf9 cells and membrane
T6 construct: expressed in transfected cells; host or cells: Sf9 membranes

[13] = molecular target: T7, muscarinic M1 receptor (Homo sapiens, UniProt P11229); test: Muscarinic M1 receptor binding (peripheral blood lymphocytes); conditions: lymphocyte suspension and sections
T7 construct: blood lymphocytes were used at a concentration of 1 × 10⁶ cells; endogenous in cells; host or cells: peripheral blood lymphocytes

[14] = molecular target: T8, M2 muscarinic receptor (Homo sapiens, UniProt P08172); test: Muscarinic M2 receptor binding (lymphocyte suspension); conditions: lymphocyte suspension and sections
T8 construct: blood lymphocytes were used at a concentration of 1 × 10⁶ cells; endogenous in cells; host or cells: peripheral blood lymphocytes

[15] = molecular target: T9, M3 muscarinic cholinergic receptor (Homo sapiens, UniProt P20309); test: Muscarinic M3 receptor binding (lymphocyte suspension); conditions: lymphocyte suspension and sections
T9 construct: blood lymphocytes were used at a concentration of 1 × 10⁶ cells; endogenous in cells; host or cells: peripheral blood lymphocytes
Procedure: (§1) Antagonist potency was determined according to literature, by measuring inhibition of RAMH-induced [35S]GTPγS binding in recombinant hH3R membranes as previously. The […]
(§2) Inverse agonist potency was conducted by measuring inhibition of basal [35S]GTPγS binding in recombinant hH3 Rmembranes. Test compound or vehicle was added to the wells, followed by [35S]GTPγS to a final concentration of 0.2 nM. Nonspecific binding was determined in the presence of 10 μM unlabeled GTPγS. The control agonist signal was determined in wells containing vehicle in place of the test compound, and the basal signal was determined in wells containing vehicle in place of both diluted compound and the RAMH […]
(§3) 3. Selectivity of Compound 11b for Additional Receptors […]
(§4) transporter, 3[H]-WIN35,428, rat striatum; (2) Dopamine D1 receptor, 3[H]-SCH23390, rat striatum; (3) Dopamine D2 receptor, [3H]spiperone, rat striatum; (4) Dopamine D3 receptor, [3H] 7-OH-DPAT, rat olfactory tubercle; (5) Serotonin 5-HT2A receptor, [3H]Ketanserin, rat brain cortex;
(§5) (6) Serotonin 5-HT2C receptor, [3H]mesulergine, rat brain cortex; (7) Adrenergic α2 receptor, [3H]- rauwolscine, rat cerebral cortex; (8) Histamine H2 receptor, [3H]tiotidine, Sf9 cells and […]

[16] = molecular target: T10, M5 muscarinic cholinergic receptor (Homo sapiens, UniProt P08912); test: Muscarinic M5 receptor binding (lymphocyte suspension); conditions: lymphocyte suspension and sections
T10 construct: blood lymphocytes were used at a concentration of 1 × 10⁶ cells; endogenous in cells; host or cells: peripheral blood lymphocytes
Procedure: as §1, §2, §3, §4, §5

[17] = molecular target: T11, σ1 receptor (Cavia porcellus, UniProt Q60492); test: σ1 receptor binding ([3H]-(+)-pentazocine); conditions: guinea pig brain membrane
T11 construct: from tissue; host or cells: guinea pig brain membranes
Procedure: as §1, §2, §3, §4, §5

[18] = molecular target: T12, σ2 receptor (Cavia porcellus, UniProt H0V073); test: σ2 receptor binding ([3H]-DTG); conditions: guinea pig brain membrane
T12 construct: from tissue; host or cells: guinea pig brain membranes

[19] = test system: mice; conditions: oral, immobility duration
[20] = molecular target: T2, NET; test: biochemical; conditions: Receptor Affinity Ki ± SEM NET, rat hippocampal membrane, [3H]nisoxetine; means ± SEM of three experiments

T1 sequence (P31652 whole entry): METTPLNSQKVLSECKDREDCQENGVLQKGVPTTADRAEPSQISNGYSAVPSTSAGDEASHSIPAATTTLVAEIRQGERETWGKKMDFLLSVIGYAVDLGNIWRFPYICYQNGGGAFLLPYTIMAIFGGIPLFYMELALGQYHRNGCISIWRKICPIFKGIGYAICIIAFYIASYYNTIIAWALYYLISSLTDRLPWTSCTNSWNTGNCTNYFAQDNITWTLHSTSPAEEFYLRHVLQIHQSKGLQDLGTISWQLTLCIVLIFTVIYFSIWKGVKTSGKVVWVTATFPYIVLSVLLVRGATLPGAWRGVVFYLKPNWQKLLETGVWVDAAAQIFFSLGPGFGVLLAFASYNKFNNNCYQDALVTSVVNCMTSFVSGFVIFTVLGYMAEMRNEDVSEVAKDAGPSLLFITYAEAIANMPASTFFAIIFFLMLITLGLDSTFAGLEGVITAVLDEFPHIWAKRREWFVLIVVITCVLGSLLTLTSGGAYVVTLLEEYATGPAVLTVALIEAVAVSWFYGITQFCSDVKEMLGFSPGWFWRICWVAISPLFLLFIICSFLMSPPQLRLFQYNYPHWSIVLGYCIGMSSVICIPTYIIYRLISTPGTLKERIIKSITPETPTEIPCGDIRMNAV
T2 sequence (Q63380 1-617): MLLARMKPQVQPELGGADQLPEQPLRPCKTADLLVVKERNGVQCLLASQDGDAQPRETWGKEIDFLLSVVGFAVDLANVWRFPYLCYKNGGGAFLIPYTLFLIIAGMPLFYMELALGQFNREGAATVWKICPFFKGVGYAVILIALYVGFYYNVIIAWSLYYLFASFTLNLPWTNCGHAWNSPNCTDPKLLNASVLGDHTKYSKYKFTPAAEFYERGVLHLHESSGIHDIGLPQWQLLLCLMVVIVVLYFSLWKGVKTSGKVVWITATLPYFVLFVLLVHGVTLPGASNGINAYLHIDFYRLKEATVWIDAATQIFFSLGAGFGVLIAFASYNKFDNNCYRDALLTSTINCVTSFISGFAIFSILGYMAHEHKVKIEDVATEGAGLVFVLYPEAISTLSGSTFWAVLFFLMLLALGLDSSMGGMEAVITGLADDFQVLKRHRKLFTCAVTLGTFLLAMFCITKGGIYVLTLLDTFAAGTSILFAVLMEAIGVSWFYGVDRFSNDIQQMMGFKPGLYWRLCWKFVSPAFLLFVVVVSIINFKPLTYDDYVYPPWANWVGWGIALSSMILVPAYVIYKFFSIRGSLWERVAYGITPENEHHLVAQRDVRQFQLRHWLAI
Chain of recombinant hH3R (Q9Y5N1 whole entry): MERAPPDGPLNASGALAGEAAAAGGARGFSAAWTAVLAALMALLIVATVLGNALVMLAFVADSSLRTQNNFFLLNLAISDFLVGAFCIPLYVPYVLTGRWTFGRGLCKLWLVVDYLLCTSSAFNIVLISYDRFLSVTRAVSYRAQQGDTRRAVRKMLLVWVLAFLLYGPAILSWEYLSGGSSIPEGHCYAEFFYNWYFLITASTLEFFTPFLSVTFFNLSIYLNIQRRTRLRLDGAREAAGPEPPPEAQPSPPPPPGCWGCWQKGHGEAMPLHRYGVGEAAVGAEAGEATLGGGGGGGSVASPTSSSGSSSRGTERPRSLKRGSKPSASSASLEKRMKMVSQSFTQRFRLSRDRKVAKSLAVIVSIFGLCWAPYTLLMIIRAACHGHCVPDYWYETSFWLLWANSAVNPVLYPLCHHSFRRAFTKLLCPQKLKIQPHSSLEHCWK
T5 sequence (P08909 33-460): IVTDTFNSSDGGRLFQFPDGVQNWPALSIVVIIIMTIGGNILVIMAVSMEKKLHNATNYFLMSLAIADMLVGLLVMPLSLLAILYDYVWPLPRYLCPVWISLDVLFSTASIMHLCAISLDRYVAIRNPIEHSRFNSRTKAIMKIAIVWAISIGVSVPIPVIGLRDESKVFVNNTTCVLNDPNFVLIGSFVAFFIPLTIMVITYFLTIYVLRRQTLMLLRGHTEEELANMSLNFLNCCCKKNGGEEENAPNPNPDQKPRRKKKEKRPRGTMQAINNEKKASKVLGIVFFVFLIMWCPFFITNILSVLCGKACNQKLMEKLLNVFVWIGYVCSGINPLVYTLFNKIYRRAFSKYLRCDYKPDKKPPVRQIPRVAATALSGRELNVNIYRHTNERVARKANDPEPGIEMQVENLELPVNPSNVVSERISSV
T3 sequence (P19020 whole entry): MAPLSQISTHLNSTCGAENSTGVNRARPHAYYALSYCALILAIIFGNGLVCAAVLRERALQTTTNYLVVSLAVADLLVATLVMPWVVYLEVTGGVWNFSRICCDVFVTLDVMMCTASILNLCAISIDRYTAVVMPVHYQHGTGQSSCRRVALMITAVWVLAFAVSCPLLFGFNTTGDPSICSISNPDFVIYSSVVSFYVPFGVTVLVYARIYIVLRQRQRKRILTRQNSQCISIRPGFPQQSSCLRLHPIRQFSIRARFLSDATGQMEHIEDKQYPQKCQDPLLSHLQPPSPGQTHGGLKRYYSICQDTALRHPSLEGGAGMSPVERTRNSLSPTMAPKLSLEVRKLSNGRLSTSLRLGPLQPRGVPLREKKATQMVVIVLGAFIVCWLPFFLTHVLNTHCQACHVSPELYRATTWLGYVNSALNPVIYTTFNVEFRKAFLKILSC
T4 sequence (P14842 whole entry): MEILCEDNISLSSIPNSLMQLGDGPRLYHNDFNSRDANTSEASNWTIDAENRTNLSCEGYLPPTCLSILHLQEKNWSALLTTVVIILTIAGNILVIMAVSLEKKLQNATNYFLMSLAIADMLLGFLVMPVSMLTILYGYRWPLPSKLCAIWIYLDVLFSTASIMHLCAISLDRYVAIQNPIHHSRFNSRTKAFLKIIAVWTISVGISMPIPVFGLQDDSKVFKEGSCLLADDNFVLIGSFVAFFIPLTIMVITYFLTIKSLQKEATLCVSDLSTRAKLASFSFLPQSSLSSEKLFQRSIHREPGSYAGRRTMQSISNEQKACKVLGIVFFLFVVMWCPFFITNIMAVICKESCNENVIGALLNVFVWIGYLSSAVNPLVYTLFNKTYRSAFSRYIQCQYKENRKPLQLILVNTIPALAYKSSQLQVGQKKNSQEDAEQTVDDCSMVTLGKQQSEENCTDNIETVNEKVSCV
Chain of Dopamine transporter (P23977 whole entry): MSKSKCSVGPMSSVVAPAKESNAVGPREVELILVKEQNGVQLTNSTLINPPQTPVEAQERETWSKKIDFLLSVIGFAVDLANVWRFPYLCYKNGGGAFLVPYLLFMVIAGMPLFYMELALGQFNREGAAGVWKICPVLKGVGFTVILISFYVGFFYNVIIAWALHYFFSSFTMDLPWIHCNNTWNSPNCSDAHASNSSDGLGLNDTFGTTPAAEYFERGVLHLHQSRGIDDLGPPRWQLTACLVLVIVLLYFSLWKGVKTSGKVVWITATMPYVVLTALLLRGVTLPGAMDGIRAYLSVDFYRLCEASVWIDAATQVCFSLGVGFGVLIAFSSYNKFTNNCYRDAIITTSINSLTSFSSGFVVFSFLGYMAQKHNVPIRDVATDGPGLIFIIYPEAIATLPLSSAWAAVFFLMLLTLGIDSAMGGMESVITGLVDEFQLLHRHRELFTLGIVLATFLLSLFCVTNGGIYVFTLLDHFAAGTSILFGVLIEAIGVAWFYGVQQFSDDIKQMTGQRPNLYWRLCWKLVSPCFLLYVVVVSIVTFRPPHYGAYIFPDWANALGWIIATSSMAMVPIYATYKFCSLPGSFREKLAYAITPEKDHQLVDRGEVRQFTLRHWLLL
T6 sequence (Q9H3N8 whole entry, species assumed): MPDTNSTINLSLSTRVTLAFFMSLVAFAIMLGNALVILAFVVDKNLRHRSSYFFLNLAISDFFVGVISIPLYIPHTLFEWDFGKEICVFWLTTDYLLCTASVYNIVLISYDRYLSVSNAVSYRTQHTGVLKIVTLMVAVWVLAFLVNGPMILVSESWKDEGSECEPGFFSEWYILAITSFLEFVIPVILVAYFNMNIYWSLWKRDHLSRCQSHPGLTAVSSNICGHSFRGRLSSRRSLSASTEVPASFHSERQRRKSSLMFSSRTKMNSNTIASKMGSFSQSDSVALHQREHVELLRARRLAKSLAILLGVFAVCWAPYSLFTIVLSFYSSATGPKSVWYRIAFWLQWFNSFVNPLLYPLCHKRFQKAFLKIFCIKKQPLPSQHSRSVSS
T12 sequence (H0V073 1-176): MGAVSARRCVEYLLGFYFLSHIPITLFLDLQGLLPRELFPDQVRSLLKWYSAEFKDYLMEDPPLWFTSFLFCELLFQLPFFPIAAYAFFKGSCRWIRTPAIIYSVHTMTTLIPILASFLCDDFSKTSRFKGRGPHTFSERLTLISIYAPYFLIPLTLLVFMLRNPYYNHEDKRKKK
T8 sequence (P08172 whole entry): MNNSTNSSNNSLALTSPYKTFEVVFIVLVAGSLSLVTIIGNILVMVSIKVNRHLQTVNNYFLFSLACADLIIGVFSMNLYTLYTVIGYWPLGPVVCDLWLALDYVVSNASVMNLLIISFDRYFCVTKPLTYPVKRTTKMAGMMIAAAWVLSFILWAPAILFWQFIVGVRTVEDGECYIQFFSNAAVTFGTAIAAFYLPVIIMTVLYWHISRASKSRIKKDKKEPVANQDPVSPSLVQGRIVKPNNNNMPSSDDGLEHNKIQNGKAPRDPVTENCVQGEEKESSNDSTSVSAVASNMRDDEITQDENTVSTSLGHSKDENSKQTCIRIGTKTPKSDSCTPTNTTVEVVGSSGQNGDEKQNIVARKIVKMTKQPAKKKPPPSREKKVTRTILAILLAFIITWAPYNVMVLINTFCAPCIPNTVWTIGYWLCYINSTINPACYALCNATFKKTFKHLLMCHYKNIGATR
T11 sequence (Q60492 whole entry): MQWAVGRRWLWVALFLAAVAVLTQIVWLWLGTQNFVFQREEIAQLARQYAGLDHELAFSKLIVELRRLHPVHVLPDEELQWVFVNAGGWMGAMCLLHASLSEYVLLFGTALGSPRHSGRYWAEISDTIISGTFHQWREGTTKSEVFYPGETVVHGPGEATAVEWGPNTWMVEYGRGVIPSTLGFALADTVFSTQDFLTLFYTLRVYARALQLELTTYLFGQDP

CN(C)CCC(Oc1cccc2c1OCO2)c1ccc(OCCCN2CCCCC2)cc1.O=C(O)C(=O)O (centres unmarked) [Compound 11b, 3-(benzo[d][1,3]dioxol-4-yloxy)-N,N-dimethyl-3-(4-(3-(piperidin-1-yl)propoxy)phenyl)propan-1-amine oxalate]
Ki ([1]; rat cerebral cortex, [3H]-paroxetine, means ± SEM of three experiments, read-out: Receptor Affinity Ki ± SEM SERT): 7.8 ± 0.9 nM
potency ratio among SERT, NET, and H3 ([1]; ratio of binding Ki values for SERT, NET, H3): < 10 fold
Activation (10 μM, %) SERT ([2]; 10 μM, n = 3): 4.4 ± 0.3%
inhibition at 10 µM ([2]; 10 μM, n = 3): > 90%
IC50 ([2]; [3H]5-HT uptake, antagonist assay): 20.1 nM
Activation (10 μM, %) NET ([3]; 10 μM, n = 3): 2.7 ± 0.2%
inhibition at 10 µM ([3]; 10 μM, n = 3): > 90%
IC50 ([3]; [3H]NE uptake, antagonist assay): 49.6 nM
inhibition at 10 µM ([4]; 10 μM, n = 3): > 90%
IC50 ([4]; antagonist assay, RAMH-induced [35S]GTPγS binding): 0.72 nM
total travel distance (locomotor activity) [5]: did not significantly alter the total travel distance
AUC(0-inf) ([6]; 2 mg/kg iv): 265 ng·h/mL
AUC(0-t) ([6]; 2 mg/kg iv): 261 ng·h/mL
Cmax ([6]; 2 mg/kg iv): 224 ng/mL
MRT last ([6]; 2 mg/kg iv): 1.2 h
Tmax ([6]; 2 mg/kg iv): 0.08 h
half-life ([6]; 2 mg/kg iv): 1.3 h
AUC(0-inf) ([6]; 20 mg/kg po): 944 ng·h/mL
AUC(0-t) ([6]; 20 mg/kg po): 942 ng·h/mL
Cmax ([6]; 20 mg/kg po): 134 ng/mL
MRT last ([6]; 20 mg/kg po): 5.4 h
Tmax ([6]; 20 mg/kg po): 2 h
half-life ([6]; 20 mg/kg po): 2.6 h
bioavailability ([6]; 20 mg/kg po vs 2 mg/kg iv, read-out: F (bioavailability)): 35.6%
Ki [7]: > 1000 nM
Ki [8]: > 1000 nM
Ki [9]: 320 nM
Ki [10]: > 1000 nM
Ki [11]: > 1000 nM
Ki [12]: > 1000 nM
Ki [13]: > 1000 nM
Ki [14]: > 1000 nM
Ki [15]: > 1000 nM
Ki [16]: > 1000 nM
Ki [17]: > 1000 nM
Ki [18]: > 1000 nM
minimal effective dose (MED) in FST [19]: 6 mg/kg
Ki [20]: 10.5 ± 1.2 nM
